Here are results for 8 compounds from patent US20220323406A1, “METHODS AND COMPOSITIONS FOR DIFFERENTIATING STEM CELLS” (Massachusetts Institute of Technology, priority 2019, published 2022).

Counter-ions that a name gives are not always drawn.

Experiment [1] relates to ENR+CD organoids (ISC to Paneth cell differentiation). Kind of experiment: Primary screen: basal (non-stimulated) lysozyme secretion LYZ.NS, 2.5-D 384-well ENR+CD organoid differentiation. In kind it is cell-based, mouse. An excerpt:
(§1) High-throughput screening.

The test system is the same in experiment [2]. Kind of experiment: Primary screen: CCh-stimulated lysozyme secretion LYZ.S, 2.5-D 384-well ENR+CD organoid differentiation. The format is cell-based, mouse. Particulars: primary screen.
Source text: as §1

Experiment [3] relates to ENR+CD organoids. Kind of experiment: Primary screen: ATP (CellTiter-Glo 3D, CTG) cell number/viability, 2.5-D 384-well ENR+CD organoids.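 Note: compounds given at plating and again on day 3 over a 6-day differentiation from ENR+CV stem-cell-enriched precursors, ATP measured on day 6, plate median as control.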 Background: In ATP-based viability assays light output follows the ATP content of the culture.
Setting [4] is: primary screen, dose 0.08 uM, standard z score.
The mark [5] stands for this setting: primary screen, dose 0.40 uM, standard z score.
Where [6] appears, read: primary screen, dose 2.00 uM, standard z score.
[7] abbreviates: primary screen, dose 10.00 uM, standard z score.
The mark [8] stands for this setting: primary screen; dose 0.08 uM; FC vs plate median.
The mark [9] stands for this setting: primary screen; dose 0.40 uM; FC vs plate median.
[10] abbreviates: primary screen; dose 2.00 uM; FC vs plate median.
The mark [11] stands for this setting: primary screen; dose 10.00 uM; FC vs plate median.
[12] abbreviates: dose 0.08 uM, FC vs plate median.
The mark [13] stands for this setting: dose 0.40 uM, FC vs plate median.
Where [14] appears, read: dose 2.00 uM, FC vs plate median.
[15] abbreviates: dose 10.00 uM, FC vs plate median.
The mark [16] stands for this setting: primary screen, standard z score, dose 0.08 uM.
Where [17] appears, read: primary screen, standard z score, dose 0.40 uM.
[18] abbreviates: primary screen, standard z score, dose 2.00 uM.
Where [19] appears, read: primary screen, standard z score, dose 10.00 uM.

Take `S=C=Nc1cccc(NC(=S)NCCCCNC(=S)Nc2cccc(N=C=S)c2)c1` [MRS 2578]: the Z.LYZ.NS was 1.011 in experiment [1] (setting [4]), 0.311 in experiment [1] (setting [5]), 0.270 in experiment [1] (setting [6]) and 0.276 in experiment [1] (setting [7]). Besides, the Dose.FC.LYZ.NS is 0.116 log2 fold change in experiment [1] (setting [8]), 0.036 log2 fold change in experiment [1] (setting [9]), 0.031 log2 fold change in experiment [1] (setting [10]) and 0.032 log2 fold change in experiment [1] (setting [11]). The Dose.FC.LYZ.S in experiment [2] (setting [12]) is listed as 0.095 log2 fold change; in experiment [2] (setting [13]), 0.067 log2 fold change; in experiment [2] (setting [14]), 0.023 log2 fold change; in experiment [2] (setting [15]), 0.013 log2 fold change. Also, the Z.CTG in experiment [3] (setting [4]) is −0.339; in experiment [3] (setting [5]), 0.146; in experiment [3] (setting [6]), −0.381; in experiment [3] (setting [7]) it was −0.544. Also, the Dose.FC.CTG in experiment [3] (setting [8]) was −0.142 log2 fold change; in experiment [3] (setting [9]), 0.061 log2 fold change; in experiment [3] (setting [10]), −0.159 log2 fold change; in experiment [3] (setting [11]) it was −0.228 log2 fold change.
Consider `C[C@@H](O[C@H]1OCCN(Cc2n[nH]c(=O)[nH]2)[C@H]1c1ccc(F)cc1)c1cc(C(F)(F)F)cc(C(F)(F)F)c1` [Aprepitant], for which the Dose.FC.LYZ.NS is listed as 0.097 log2 fold change in experiment [1] (primary screen, dose 0.08 uM); 0.061 log2 fold change in experiment [1] (primary screen, dose 0.40 uM); 0.005 log2 fold change in experiment [1] (primary screen, dose 2.00 uM); −0.090 log2 fold change in experiment [1] (primary screen, dose 10.00 uM). In addition, the “Z.LYZ.NS (standard z score)” value is on record as 0.840 in experiment [1] (primary screen, dose 0.08 uM); 0.532 in experiment [1] (primary screen, dose 0.40 uM); 0.043 in experiment [1] (primary screen, dose 2.00 uM); −0.780 in experiment [1] (primary screen, dose 10.00 uM). Moreover, the Dose.FC.LYZ.S is reported as 0.115 log2 fold change in experiment [2] (dose 0.08 uM), 0.107 log2 fold change in experiment [2] (dose 0.40 uM), −0.007 log2 fold change in experiment [2] (dose 2.00 uM) and −0.119 log2 fold change in experiment [2] (dose 10.00 uM). In addition, the Dose.FC.CTG worked out at 0.313 log2 fold change in experiment [3] (primary screen, dose 0.08 uM); 0.403 log2 fold change in experiment [3] (primary screen, dose 0.40 uM); 0.145 log2 fold change in experiment [3] (primary screen, dose 2.00 uM); 0.051 log2 fold change in experiment [3] (primary screen, dose 10.00 uM).
Regarding `CC(C)NCC(O)COc1ccc(COCCOC(C)C)cc1` (stereo not drawn) [Bisoprolol fumarate], the Dose.FC.LYZ.NS in experiment [1] (primary screen, dose 0.08 uM) was found to be 0.085 log2 fold change; in experiment [1] (primary screen, dose 0.40 uM) it was 0.075 log2 fold change; in experiment [1] (primary screen, dose 2.00 uM), 0.075 log2 fold change; in experiment [1] (primary screen, dose 10.00 uM), 0.003 log2 fold change. In addition, the “Z.LYZ.NS (standard z score)” value in experiment [1] (primary screen, dose 0.08 uM) amounted to 0.739; in experiment [1] (primary screen, dose 0.40 uM), 0.649; in experiment [1] (primary screen, dose 2.00 uM) it was 0.656; in experiment [1] (primary screen, dose 10.00 uM) it was 0.027. Also, the Dose.FC.LYZ.S in experiment [2] (dose 0.08 uM) is recorded as 0.086 log2 fold change; in experiment [2] (dose 0.40 uM), 0.129 log2 fold change; in experiment [2] (dose 2.00 uM), 0.074 log2 fold change; in experiment [2] (dose 10.00 uM), 0.015 log2 fold change. The Dose.FC.CTG in experiment [3] (primary screen, dose 0.08 uM) is on record as −0.104 log2 fold change; in experiment [3] (primary screen, dose 0.40 uM), −0.057 log2 fold change; in experiment [3] (primary screen, dose 2.00 uM), −0.020 log2 fold change; in experiment [3] (primary screen, dose 10.00 uM), 0.058 log2 fold change.
With `COc1ccccc1N1CCN(CC(O)COc2cccc3ccccc23)CC1` (stereo not drawn) [Naftopidil], the Z.LYZ.NS was −0.325 in experiment [1] (setting [4]), −0.713 in experiment [1] (setting [5]), −0.171 in experiment [1] (setting [6]) and −0.638 in experiment [1] (setting [7]). The Dose.FC.LYZ.NS in experiment [1] (setting [8]) is −0.037 log2 fold change; in experiment [1] (setting [9]) it was −0.082 log2 fold change; in experiment [1] (setting [10]), −0.020 log2 fold change; in experiment [1] (setting [11]), −0.073 log2 fold change. In addition, the Dose.FC.LYZ.S in experiment [2] (setting [12]) is given as 0.015 log2 fold change; in experiment [2] (setting [13]), −0.128 log2 fold change; in experiment [2] (setting [14]) it was −0.097 log2 fold change; in experiment [2] (setting [15]), −0.079 log2 fold change. Also, the Dose.FC.CTG in experiment [3] (setting [8]) is −0.039 log2 fold change; in experiment [3] (setting [9]), −0.161 log2 fold change; in experiment [3] (setting [10]), −0.179 log2 fold change; in experiment [3] (setting [11]) it was −0.132 log2 fold change.
For the compound `C#Cc1cccc(Nc2ncnc3cc4c(cc23)OCCOCCOCCO4)c1` [Icotinib], the “Dose.FC.LYZ.NS (log2 fold change)” value in experiment [1] (primary screen, dose 0.08 uM) is recorded as 0.029; in experiment [1] (primary screen, dose 0.40 uM), −0.073; in experiment [1] (primary screen, dose 2.00 uM), −0.133; in experiment [1] (primary screen, dose 10.00 uM), −0.289. The “Z.LYZ.NS (standard z score)” value in experiment [1] (primary screen, dose 0.08 uM) is listed as 0.255; in experiment [1] (primary screen, dose 0.40 uM), −0.632; in experiment [1] (primary screen, dose 2.00 uM) it was −1.160; in experiment [1] (primary screen, dose 10.00 uM) it was −2.518. The “Dose.FC.LYZ.S (log2 fold change)” value in experiment [2] (dose 0.08 uM) is 0.094; in experiment [2] (dose 0.40 uM), −0.090; in experiment [2] (dose 2.00 uM), −0.243; in experiment [2] (dose 10.00 uM) it was −0.419. Also, the “Dose.FC.CTG (log2 fold change)” value in experiment [3] (primary screen, dose 0.08 uM) is reported as −0.020; in experiment [3] (primary screen, dose 0.40 uM), −0.061; in experiment [3] (primary screen, dose 2.00 uM), −0.406; in experiment [3] (primary screen, dose 10.00 uM), −1.068.
Consider `COc1ccc(C[C@@H](C)NC[C@H](O)c2ccc(O)c(NC=O)c2)cc1.COc1ccc(C[C@@H](C)NC[C@H](O)c2ccc(O)c(NC=O)c2)cc1.O=C(O)/C=C/C(=O)O` [Formoterol Hemifumarate], for which the Dose.FC.LYZ.NS in experiment [1] (primary screen, dose 0.08 uM) is 0.145 log2 fold change; in experiment [1] (primary screen, dose 0.40 uM) it was 0.073 log2 fold change; in experiment [1] (primary screen, dose 2.00 uM) it was 0.048 log2 fold change; in experiment [1] (primary screen, dose 10.00 uM), 0.013 log2 fold change. The Z.LYZ.NS in experiment [1] (setting [16]) is reported as 1.263; in experiment [1] (setting [17]), 0.638; in experiment [1] (setting [18]) it was 0.420; in experiment [1] (setting [19]), 0.114. Moreover, the Dose.FC.LYZ.S in experiment [2] (dose 0.08 uM) was 0.206 log2 fold change; in experiment [2] (dose 0.40 uM), 0.293 log2 fold change; in experiment [2] (dose 2.00 uM), 0.090 log2 fold change; in experiment [2] (dose 10.00 uM), 0.011 log2 fold change. The Dose.FC.CTG was 0.294 log2 fold change in experiment [3] (primary screen, dose 0.08 uM); 0.265 log2 fold change in experiment [3] (primary screen, dose 0.40 uM); 0.242 log2 fold change in experiment [3] (primary screen, dose 2.00 uM); 0.253 log2 fold change in experiment [3] (primary screen, dose 10.00 uM). Besides, the Z.CTG in experiment [3] (setting [16]) is on record as 0.703; in experiment [3] (setting [17]), 0.633; in experiment [3] (setting [18]) it was 0.578; in experiment [3] (setting [19]) it was 0.604.
In the case of HA14-1, the “Dose.FC.LYZ.NS (log2 fold change)” value in experiment [1] (primary screen, dose 0.08 uM) is listed as 0.121; in experiment [1] (primary screen, dose 0.40 uM) it was 0.137; in experiment [1] (primary screen, dose 2.00 uM), 0.154; in experiment [1] (primary screen, dose 10.00 uM) it was 0.132. In addition, the “Z.LYZ.NS (standard z score)” value is on record as 1.052 in experiment [1] (primary screen, dose 0.08 uM); 1.195 in experiment [1] (primary screen, dose 0.40 uM); 1.345 in experiment [1] (primary screen, dose 2.00 uM); 1.151 in experiment [1] (primary screen, dose 10.00 uM). Further, the “Dose.FC.LYZ.S (log2 fold change)” value amounted to 0.190 in experiment [2] (dose 0.08 uM), 0.316 in experiment [2] (dose 0.40 uM), 0.170 in experiment [2] (dose 2.00 uM) and 0.149 in experiment [2] (dose 10.00 uM). Moreover, the “Dose.FC.CTG (log2 fold change)” value in experiment [3] (primary screen, dose 0.08 uM) is listed as 0.534; in experiment [3] (primary screen, dose 0.40 uM), 0.526; in experiment [3] (primary screen, dose 2.00 uM) it was 0.554; in experiment [3] (primary screen, dose 10.00 uM), 0.388. In addition, the “Z.CTG (standard z score)” value in experiment [3] (primary screen, dose 0.08 uM) worked out at 1.276; in experiment [3] (primary screen, dose 0.40 uM) it was 1.255; in experiment [3] (primary screen, dose 2.00 uM) it was 1.323; in experiment [3] (primary screen, dose 10.00 uM), 0.926.
As for `C/C(=N\NC(=S)N1CCC1)c1ccccn1` [NSC 319726], the Z.LYZ.NS in experiment [1] (setting [4]) is on record as 0.982; in experiment [1] (setting [5]), −0.780; in experiment [1] (setting [6]), −1.323; in experiment [1] (setting [7]), −1.992. The Dose.FC.LYZ.NS is given as 0.113 log2 fold change in experiment [1] (setting [8]), −0.090 log2 fold change in experiment [1] (setting [9]), −0.152 log2 fold change in experiment [1] (setting [10]) and −0.229 log2 fold change in experiment [1] (setting [11]). The Dose.FC.LYZ.S in experiment [2] (setting [12]) was 0.060 log2 fold change; in experiment [2] (setting [13]), −0.035 log2 fold change; in experiment [2] (setting [14]), −0.248 log2 fold change; in experiment [2] (setting [15]), −0.327 log2 fold change. For the same compound, the Z.CTG is 0.316 in experiment [3] (setting [4]), −0.441 in experiment [3] (setting [5]), −1.068 in experiment [3] (setting [6]) and −4.555 in experiment [3] (setting [7]). The Dose.FC.CTG in experiment [3] (setting [8]) is reported as 0.132 log2 fold change; in experiment [3] (setting [9]), −0.185 log2 fold change; in experiment [3] (setting [10]), −0.447 log2 fold change; in experiment [3] (setting [11]), −1.907 log2 fold change.
